Where “and” joins values, the source holds several entries; their conditions need not be identical. Identical values can stand only once.
How the values were obtained:
hHINT1 Q62R [1] = target: T1, hHINT1 Q62R (Homo sapiens, UniProt P49773, Q62R); assay: Steady-state kinetics assay; format: biochemical; conditions: steady-state 25 °C
hHINT2 R99A [2] = target: T2, hHINT2 R99A (Homo sapiens, UniProt Q9BX68, R99A); assay: Steady-state kinetics assay; format: biochemical
hHINT1 = hHINT1 (Homo sapiens, UniProt P49773); assay: Time course simulation; format: biochemical
Chain of hHINT1 (P49773 whole entry): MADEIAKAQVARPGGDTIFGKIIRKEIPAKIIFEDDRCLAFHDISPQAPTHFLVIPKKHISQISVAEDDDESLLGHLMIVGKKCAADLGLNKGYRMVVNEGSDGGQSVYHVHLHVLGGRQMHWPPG

hHINT1 Q62A [3] = target: T3, hHINT1 Q62A (Homo sapiens, UniProt P49773, Q62A); assay: Stopped-flow burst-phase adenylation kinetics, hHINT1 Q62A; format: biochemical
T3 sequence (P49773 whole entry Q62A): as the sequence (P49773 whole entry) above, with Q62A counted along it

hHINT1 WT [4] = conditions: cited from earlier work
hHINT2 = hHINT2 (Homo sapiens, UniProt Q9BX68); assay: Time course simulation; format: biochemical
Chain of hHINT2 (Q9BX68 37-163 limits assumed): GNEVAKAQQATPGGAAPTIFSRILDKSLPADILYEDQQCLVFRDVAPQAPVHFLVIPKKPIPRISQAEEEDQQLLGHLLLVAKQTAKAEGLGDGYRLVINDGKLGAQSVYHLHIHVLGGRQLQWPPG

hHINT1 Q62A [5] = target: T3, hHINT1 Q62A; assay: Steady-state kinetics assay; format: biochemical
hHINT2 R99A [6] = target: T2, hHINT2 R99A; assay: Stopped-flow burst-phase adenylation kinetics, hHINT2 R99A; format: biochemical
hHINT1 WT [7] = conditions: steady-state 25 °C, cited from earlier work
hHINT2 R99Q [8] = target: T4, hHINT2 R99Q (Homo sapiens, UniProt Q9BX68, R99Q); assay: Steady-state kinetics assay; format: biochemical; conditions: steady-state 25 °C
T4 sequence (Q9BX68 37-163 R99Q limits assumed): as the sequence (Q9BX68 37-163 limits assumed) above, with R63Q counted along it

hHINT2 R99Q [9] = target: T4, hHINT2 R99Q; assay: Stopped-flow burst-phase adenylation kinetics, hHINT2 R99Q; format: biochemical
hHINT2 WT [10] = target: T5, hHINT2 WT (Homo sapiens, UniProt Q9BX68); assay: Stopped-flow burst-phase adenylation kinetics, hHINT2 WT; format: biochemical
T5 sequence (Q9BX68 37-163 limits assumed): as the sequence (Q9BX68 37-163 limits assumed) above

hHINT1 Q62R [11] = target: T1, hHINT1 Q62R; assay: Stopped-flow burst-phase adenylation kinetics, hHINT1 Q62R; format: biochemical
hHINT1 WT [12] = conditions: ITC; cited from earlier work
hHINT2 R99Q [13] = target: T4, hHINT2 R99Q; assay: Isothermal titration calorimetry, hHINT2 R99Q; format: binding
hHINT2 WT [14] = target: T5, hHINT2 WT; assay: Isothermal titration calorimetry, hHINT2 WT; format: binding
[15] = pH 7.2, read-out: k1, E+TpAd ⇆ E•TpAd
[16] = pH 7.2, read-out: k−1, E+TpAd ⇆ E•TpAd
[17] = time course simulation, 4.3 °C, hHINT1
[18] = time course simulation, 4.3 °C, hHINT1, k4 and k5 can be interchanged without altering the fit
[19] = time course simulation, 4.3 °C, hHINT2
[20] = time course simulation, 4.3 °C, hHINT2, k4 and k5 can be interchanged without altering the fit

T2 sequence (Q9BX68 37-163 R99A limits assumed): as the sequence (Q9BX68 37-163 limits assumed) above, with R63A counted along it
T1 sequence (P49773 whole entry Q62R): as the sequence (P49773 whole entry) above, with Q62R counted along it

Q: Which results are given for `Nc1ncnc2c1ncn2[C@@H]1O[C@H](COP(=O)(O)NCCc2c[nH]c3ccccc23)[C@@H](O)[C@H]1O` [TpAd, adenosine tryptamine phosphoramidate monoester]?
A: kcat Q62R/WT Ratio (hHINT1 Q62R [1]): 0.67; kcat/Km Q62R/WT Ratio (hHINT1 Q62R [1]): 0.73; decrease in steady-state turnover, hHINT2 R99A vs wild-type (hHINT2 R99A [2]; steady-state): 2 fold; Km R99A/WT Ratio (hHINT2 R99A [2]; steady-state 25 °C, hHINT2): 0.75; kcat R99A/WT Ratio (hHINT2 R99A [2]; steady-state 25 °C, hHINT2): 0.46; kcat/Km R99A/WT Ratio (hHINT2 R99A [2]; steady-state 25 °C, hHINT2): 0.65; kon (hHINT1; [15]): > 9.5e+06 M⁻¹ s⁻¹; koff (hHINT1; [16]): > 60 s⁻¹; k2, E•TpAd ⇆ E-NMP•Tp (hHINT1; [17]): 56.5 ± 2.5 s⁻¹; k3, E-NMP•Tp ⇆ E-NMP + Tp (hHINT1; [17]): >2000 s⁻¹; k−2, E•TpAd ⇆ E-NMP•Tp (hHINT1; [17]): 0; k−3, E-NMP•Tp ⇆ E-NMP + Tp (hHINT1; [17]): 0; k−4, E-NMP + H20 ⇆ E’-NMP (hHINT1; [17]): 0; k−5, E’-NMP ⇆ E + NMP (hHINT1; [17]): 0; k4, E-NMP + H20 ⇆ E’-NMP (hHINT1; [18]): 0.41 ± 0.03 s⁻¹; k5, E’-NMP ⇆ E + NMP (hHINT1; [18]): >100 s⁻¹; Kd (hHINT1 Q62A [3]): 4.9 ± 0.5 µM; k2 Q62A/WT Ratio (hHINT1 Q62A [3]; burst phase 25 °C, hHINT1): 0.85; k2 (adenylation rate constant) (hHINT1 Q62A [3]; burst phase 25 °C, hHINT1 Q62A): 172 ± 6 s⁻¹; k2 (adenylation rate constant) (hHINT1 WT [4]; burst phase 25 °C): 203 s⁻¹ and 203 ± 13 s⁻¹; Kd (hHINT1 WT [4]; read-out: KD (substrate binding), burst phase 25 °C): 13 ± 2 µM; fluorescence of bound TpAd relative to unquenched tryptamine (hHINT2; TpAd bound to hHINT2, constraint giving excellent simulations): ~ 75%; kon (hHINT2; [15]): > 5e+07 M⁻¹ s⁻¹; koff (hHINT2; [16]): > 60 s⁻¹; k2, E•TpAd ⇆ E-NMP•Tp (hHINT2; [19]): 60.8 ± 2.5 s⁻¹; k3, E-NMP•Tp ⇆ E-NMP + Tp (hHINT2; [19]): >1640 s⁻¹; k−2, E•TpAd ⇆ E-NMP•Tp (hHINT2; [19]): 0; k−3, E-NMP•Tp ⇆ E-NMP + Tp (hHINT2; [19]): 0; k−4, E-NMP + H20 ⇆ E’-NMP (hHINT2; [19]): 0; k−5, E’-NMP ⇆ E + NMP (hHINT2; [19]): 0; k4, E-NMP + H20 ⇆ E’-NMP (hHINT2; [20]): 1.34 s^−1 ± 0.14 s^−1; k5, E’-NMP ⇆ E + NMP (hHINT2; [20]): >34 s⁻¹; kcat decrease, hHINT1 Q62A vs wild-type (hHINT1 Q62A [5]; steady-state): 5 fold; Km Q62A/WT Ratio (hHINT1 Q62A [5]; steady-state 25 °C, hHINT1): 0.12; kcat Q62A/WT Ratio (hHINT1 Q62A [5]; steady-state 25 °C, hHINT1): 0.21; kcat/Km Q62A/WT Ratio (hHINT1 Q62A [5]; steady-state 25 °C, hHINT1): 1.87; Kd (hHINT2 R99A [6]): 6 ± 0.47 µM; KD R99A/WT Ratio (hHINT2 R99A [6]; burst phase 4 °C, hHINT2): 1.10; k2 R99A/WT Ratio (hHINT2 R99A [6]; burst phase 4 °C, hHINT2): 0.96; k2 (adenylation rate constant) (hHINT2 R99A [6]; burst phase 4 °C, hHINT2 R99A): 86.4 ± 6.1 s⁻¹; Km (hHINT1 WT [7]): 0.13 ± 0.02 µM; kcat (hHINT1 WT [7]; substrate turnover): 2.1 ± 0.1 s⁻¹; Km R99Q/WT Ratio (hHINT2 R99Q [8]): 0.92; kcat R99Q/WT Ratio (hHINT2 R99Q [8]): 1.04; kcat/Km R99Q/WT Ratio (hHINT2 R99Q [8]): 1.18; Kd (hHINT2 R99Q [9]): 5.45 ± 0.6 µM; KD R99Q/WT Ratio (hHINT2 R99Q [9]; burst phase 4 °C, hHINT2): 1.00; k2 R99Q/WT Ratio (hHINT2 R99Q [9]; burst phase 4 °C, hHINT2): 1.04; k2 (adenylation rate constant) (hHINT2 R99Q [9]; burst phase 4 °C, hHINT2 R99Q): 93.2 ± 5.0 s⁻¹; Kd (hHINT2 WT [10]): 5.44 ± 0.58 µM; k2 (adenylation rate constant) (hHINT2 WT [10]; burst phase 4 °C, hHINT2 WT): 89.7 s⁻¹ and 89.7 ± 5.1 s⁻¹; Kd (hHINT1 Q62R [11]): 2.9 ± 0.2 µM; KD Q62R/WT Ratio (hHINT1 Q62R [11]; burst phase 25 °C, hHINT1): 0.2; k2 Q62R/WT Ratio (hHINT1 Q62R [11]; burst phase 25 °C, hHINT1): 0.89; k2 (adenylation rate constant) (hHINT1 Q62R [11]; burst phase 25 °C, hHINT1 Q62R): 180 ± 9 s⁻¹

Q: Which results are given for `O=C(CCc1c[nH]c2ccccc12)NS(=O)(=O)OC[C@H]1O[C@@H](n2cnc3c2ncn2ccnc32)[C@H](O)[C@@H]1O` [Inhibitor 1]?
A: -TΔS (hHINT1 WT [12]): 8.19 ± 0.13 kcal/mol; Kd (hHINT2 R99Q [13]): 6.94 ± 0.51 µM; -TΔS (hHINT2 R99Q [13]; ITC 25 °C, pH 7.2, hHINT2 R99Q): 7.68 ± 0.55 kcal/mol; n (binding stoichiometry) (hHINT2 R99Q [13]; ITC 25 °C, pH 7.2, hHINT2 R99Q): 1.1; ΔH (hHINT2 R99Q [13]; ITC 25 °C, pH 7.2, hHINT2 R99Q): -14.72 ± 0.10 kcal/mol; Kd (hHINT2 WT [14]): 9.43 ± 0.45 µM; ΔH (hHINT2 WT [14]; ITC 25 °C, 10 mM Tris, 150 mM NaCl, pH 7.2, hHINT2 WT): -10.54 ± 0.16 kcal/mol; -TΔS (hHINT2 WT [14]; ITC 25 °C, pH 7.2, hHINT2 WT): 3.69 ± 0.17 kcal/mol; n (binding stoichiometry) (hHINT2 WT [14]; ITC 25 °C, pH 7.2, hHINT2 WT): 0.80; ΔG (hHINT2 WT [14]; ITC 25 °C, pH 7.2, hHINT2 WT): -6.84 ± 0.32 kcal/mol

— PMC9854251 (Biochemistry, 2022)
